Measurements published in the NIST ThermoML archive (doi:10.1021/je050366x).
Values joined by “and” are separate entries in the source; they are usually repeats but may differ in a detail not shown here. Identical values can stand only once. ± gives the expanded uncertainty stated by the source.

Assay: xn = mol fraction of the nth substance listed
Conditions: for surface tension liquid-gas: Ring tensiometer; for mass density: 100 kPa, Liquid

O=C(O)CCC(=O)O [butanedioic acid] + O
Conditions | mass density | surface tension liquid-gas
279.9 K, x1 = 0.00716 | – | 70 mN/m
280.1 K, x1 = 0.00716 | – | 69.2 mN/m
280.2 K, x1 = 0.00716 | – | 70.3 mN/m
280.6 K, x1 = 0.00716 | – | 70 mN/m
284 K, x1 = 0.00716 | – | 69 mN/m
284.3 K, x1 = 0.00716 | – | 69.7 mN/m
284.7 K, x1 = 0.00716 | – | 69.3 mN/m
284.8 K, x1 = 0.00716 | – | 69.5 mN/m
285 K, x1 = 0.00716 | – | 69.6 mN/m
288.4 K, x1 = 0.00716 | – | 68.6 mN/m
288.9 K, x1 = 0.00716 | – | 69 mN/m and 68.8 mN/m and 68.7 mN/m
292.6 K, x1 = 0.00716 | – | 67.8 mN/m
293.1 K, x1 = 0.00716 | – | 68.5 mN/m
293.3 K, x1 = 0.00716 | – | 68.2 mN/m
293.4 K, x1 = 0.00716 | – | 68.2 mN/m
293.6 K, x1 = 0.00716 | – | 68.4 mN/m
296.8 K, x1 = 0.00716 | – | 67.2 mN/m
297.4 K, x1 = 0.00716 | – | 67.7 mN/m
297.6 K, x1 = 0.00716 | – | 68 mN/m
297.8 K, x1 = 0.00716 | – | 67.8 mN/m
297.9 K, x1 = 0.00716 | – | 67.8 mN/m
298 K, x1 = 0.0011 | 991 ± 2 kg/m3 | 70.9 ± 1.2 mN/m
298 K, x1 = 0.0012 | 997 ± 2 kg/m3 | –
298 K, x1 = 0.0022 | 993 ± 2 kg/m3 and 1003 ± 2 kg/m3 | 70 ± 1.2 mN/m
298 K, x1 = 0.0028 | 996 ± 2 kg/m3 | 69.8 ± 1.1 mN/m
298 K, x1 = 0.0033 | 997 ± 2 kg/m3 | 69.4 ± 1.1 mN/m
298 K, x1 = 0.0037 | 1001 ± 2 kg/m3 | –
298 K, x1 = 0.0045 | 998 ± 2 kg/m3 | 68.9 ± 1.1 mN/m
298 K, x1 = 0.0047 | 1002 ± 2 kg/m3 | –
298 K, x1 = 0.0056 | 1001 ± 2 kg/m3 | 68.5 ± 1.1 mN/m
298 K, x1 = 0.0067 | 1002 ± 2 kg/m3 | 68.1 ± 1.1 mN/m
298 K, x1 = 0.0068 | 1008 ± 2 kg/m3 | –
298 K, x1 = 0.0071 | – | 67.7 ± 1.1 mN/m
298 K, x1 = 0.0078 | 1005 ± 2 kg/m3 | 67.6 ± 1.1 mN/m
298 K, x1 = 0.0089 | 1007 ± 2 kg/m3 | 67.3 ± 1.1 mN/m
298 K, x1 = 0.01 | 1009 ± 2 kg/m3 | 66.6 ± 1.1 mN/m
298 K, x1 = 0.0107 | – | 66.9 ± 1.1 mN/m
298 K, x1 = 0.011 | 1010 ± 2 kg/m3 | –
298 K, x1 = 0.0111 | – | 66.4 ± 1.1 mN/m
298 K, x1 = 0.0117 | – | 66.7 ± 1.1 mN/m
301.7 K, x1 = 0.00716 | – | 67.5 mN/m
301.8 K, x1 = 0.00716 | – | 67.1 mN/m
302.3 K, x1 = 0.00716 | – | 67.3 mN/m
302.9 K, x1 = 0.00716 | – | 67.1 mN/m
